{"source": "patent US20230312652A1", "about": "“NOVEL PEPTIDES AND USES THEREOF” (Aarhus Universitet, priority 2020, published 2023)", "molecules": {"B1": {"name": "Cyclic peptide P1 (peptide)", "peptide": "MTEPVEHEEDV", "modifications": "Cyclic (backbone): head-to-tail cyclized via the M amino acid residue in position 1 and the V amino acid residue in position 11"}, "B2": {"name": "BDNF (protein, UniProt P23560 19-247, looked up)", "Neurotrophic factor BDNF …": "APMKEANIRGQGGLAYPGVRTHGTLESVNGPKAGSRGLTSLADTFEHVIEELLDEDQKVRPNEENNKDADLYTSRVMLSSQVPLEPPLLFLLEEYKNYLDAANMSMRVRRHSDPARRGELSVCDSISEWVTAADKKTAVDMSGGTVTVLEKVPVSKGQLKQYFYETKCNPMGYTKEGCRGIDKRHWNSQCRTTQSYVRALTMDSKKRIGWRFIRIDTSCVCTLTIKRGR", "notes": "neurotrophic factor used as a positive control"}}, "key": {"cortical neurons": {"test_system": "cortical neurons", "experiment": "Survival of wild-type cortical neurons, MTT assay", "type": "cell-based, mouse", "conditions": "for relative survival compared to control: 1 uM on DIV7, DIV9 and DIV11, MTT at DIV12", "method": "Cortical neurons were isolated from p0 wild-type mice and seeded in a density of 50.000 in a 96-well plate pre-coated with poly-L and laminin and incubated at 37° C. in a 5% C02 atmosphere. At 7 days in vitro (DIV7) the neurons were treated by changing half the media with neurobasal A with B27 containing the peptides (P2, P4 or P6) to give a finale concentration of 1 uM and further incubated. The cortical neurons were treated in a likewise manner on DIV9 and DIV11. At DIV12 half the media was removed and 3-(4,5-dimethylthiazole-2-yl)-2,5-diphenyltetrazolium bromide (MTT) was added to the media to give a finale concentration of 0.5 mg/mL. MTT is reduced by mitochondrial enzymes in active cells to an insoluble product called formazan, which can be detected by colorimetry. Thus, the colour generated reflects activity and viable cells in the culture. The neurons were incubated for 4 hours with MTT and thereafter lysed in a 50% EtOH and 50% DMSO solution. To assure proper mixing of formazan, the plate was left to shake for 30 minutes before being measured at 570 nm and 650 nm. Student's t-test was used for statistical analysis.\nFurther, a drug-dose response on survival for peptide P1 was assessed in a similar manner."}, "[1]": {"test_system": "GRN(+/-) cortical neurons", "experiment": "Survival of GRN-deficient cortical neurons, MTT assay", "type": "cell-based, mouse", "conditions": "1 uM on DIV7, 9, 11, 13 and 15; MTT at DIV16"}, "[2]": {"test_system": "AMPK (T172) and CREB (S133)", "experiment": "P1 activation of AMPK and CREB with or without CaMKK2-inhibitor STO-609 in cortical neurons", "type": "cell-based, mouse", "conditions": "5 uM STO-609", "method": "Mouse cortical neurons were isolated from p0 wild-type mice and seeded in a density of 250,000 per well in a 12-well tray. After 7 days in vitro the neurons were either pre-treated with STO-609 (5 uM) for 1 hour or with DMSO (control). After 1 hour, the neurons were stimulated with P1 or a scrambled peptide (Scr), with or without STO-609, in neurobasal A media and incubated at 37° C. and 5% CO2 for 20 minutes. Hereafter, the neurons were lysed in lysis buffer containing DTT and cOmplete cocktail protease inhibitor. Phosphorylation of AMPK (T172) and CREB (S133) was validated by western blotting and normalized to beta-actin."}, "CREB [3]": {"test_system": "CREB", "experiment": "CREB activation (phosphorylation on serine 133) in wild-type cortical neurons, western blotting", "type": "cell-based, mouse", "conditions": "20 minutes, 7 days in vitro", "method": "(§1) To assess the ability of peptides P1, P2 and P6, respectively, to activate transcription factor CREB, cortical neurons were isolated from p0 wild-type mice and seeded in a density of 500.000 per well. After 7 days in vitro the neurons were stimulated with the different peptide variants at 1 uM in neurobasal A media and incubated at 37° C. and 5% C02 for 20 minutes. Hereafter, the neurons were lysed in lysis buffer containing DTT and cOmplete cocktail protease inhibitor and subsequently sonicated to disrupt the nuclear membrane. The phosphorylation of CREB on serine 133 was validated by western blotting normalized to beta-actin. As control, cells were stimulated with a scrambled peptide (Scr). Student's t-test was used for statistical analysis.\nas §1, with “The” for “To assess the”, “peptide P1” for “peptides P1, P2”, “a linear peptide analog of P1 with acetylated N- and amidated C-terminals (referred to as LP1)” for “P6, respectively,”, “CREB was assessed. Cortical” for “CREB, cortical”, “20 nM” for “1 uM”, “CO2” for “C02”"}, "CREB [4]": {"test_system": "CREB", "experiment": "CREB activation in striatum and hippocampus of wild-type mice after IV injection", "type": "in vivo, mouse", "conditions": "0.26 mg/kg IV, 1 hour after injection", "method": "To assess this, 8 weeks old wild-type mice were injected intravenously with either 0.26 mg/kg of peptide P1 or LP1 dissolved in saline. 1 hour after the injection, the mice were sacrificed by cervical dislocation and striatal tissue was isolated by dissection and immediately lysed using a TissueLyser in lysis buffer containing cOmplete and DTT. The samples were subsequently homogenized by sonication. The phosphorylation of CREB on serine 133 was subsequently validated by western blotting. The levels of phosphorylated CREB were normalized to the corresponding beta-actin levels. Student's t-test was used for statistical analysis."}, "hippocampal neurons": {"test_system": "hippocampal neurons", "experiment": "Neuronal branching in wild-type hippocampal neurons", "type": "cell-based, mouse", "conditions": "DIV1 to DIV4", "method": "Hippocampal neurons were isolated from p0 wild-type mice and seeded in a density of 10.000 per well in 24-well trays containing poly-D and laminin coated coverslips. At DIV1 the neurons were treated with 0.1 uM or 1 uM P6. BDNF (1 nM) was used as a positive control. At DIV4 the neurons were fixed and immunostained for MAP2, a marker of dendrites. Pictures of MAP2 were taken of neurites with 20 neurons pr. coverslip. The neurites may not be in contact with other neurites from other neurons. The pictures were analysed in Imaris Software. The number branches were counted manually."}, "SV2A": {"test_system": "SV2A", "experiment": "SV2A levels in wild-type neurons, western blotting", "type": "cell-based, mouse", "conditions": "0.1 uM or 1 uM from DIV8 for 3 days", "method": "Hippocampal neurons were isolated from p0 wild-type mice and seeded in a density of 250,000 per well in 12-well trays precoated with poly-L and laminin. At DIV8 the neurons were treated with 0.1 uM or 1 uM P6 for 3 days. The neurons were lysed in RIPA buffer containing cOmplete and phosSTOP and SV2A levels were validated by western blotting, normalized to beta-actin."}, "CREB and AMPK": {"test_system": "CREB and AMPK", "experiment": "CREB and AMPK activation in brain of wild-type mice after subcutaneous injection", "type": "in vivo, mouse", "conditions": "3.6 mg/kg SC, separate study", "method": "To assess the subcutaneous administration route of peptide P1, 8 weeks old wild-type mice were subcutaneously injected with different doses ranging between 0.13 to 26 mg/kg of peptide P1 dissolved in 4.38 mM L-His, 140 mM NaCl, 0.2% Tween-20 and 1500 IU hyaluronidase (pH 6.15). Likewise, was an earlier lead peptide constituting a linear version of P1 attached to a cell-penetrating moiety (P9, SEQ ID NO: 9), tested for its ability to activate CREB in both striatum and hippocampus (in a separate study) following subcutaneous injection with 3.6 mg/kg. 2 hours after injection the mice were sacrificed by cervical dislocation and striatal tissue was isolated by dissection and snap frozen in liquid nitrogen and stored at −80° C. until further use. To assess the activation of CREB and AMPK, the tissue was lysed using a TissueLyser in lysis buffer containing cOmplete and DTT. The samples were subsequently homogenized by sonication. The phosphorylation of CREB on serine 133 and threonine 172 on AMPK was subsequently validated by western blotting and the levels of were normalized to beta-actin. Student's t-test was used for statistical analysis."}, "[5]": {"test_system": "spared nerve injury (SNI) model", "experiment": "Spared nerve injury mouse model, acute, von Frey test", "type": "in vivo", "conditions": "single SC dose 17 days post-SNI operation", "method": "(§2) To assess the effect of peptide P3 on neuropathic pain, the spared nerve injury (SNI) model was used. The threshold for mechanical pain response is determined by testing with von Frey filaments of increasing bending force, which are repetitively pressed against the lateral area of the paw. Two baseline measurements were made before SNI operation. In brief, the common peroneal and tibial branches of the sciatic nerve were ligated and cut distally to the ligation, just distal to the branching of the sural nerve, which was left untouched. The mechanical allodynia was subsequently assessed with von Frey testing 17 days post-surgery. […] Student's t-test was used for statistical analysis."}, "[6]": {"test_system": "spared nerve injury (SNI) model", "experiment": "Spared nerve injury mouse model, daily dosing, von Frey test", "type": "in vivo", "conditions": "single SC dose daily for 8 days from 1 day post-SNI operation", "method": "as §2\nMice, surgery and von Frey testing was performed as in Example 28.\nStudent's t-test was used for statistical analysis."}, "mouse brain homogenate": {"target": "mouse brain homogenate", "experiment": "brain homogenate binding: 2 uM P1, ultracentrifugation, LCMS"}, "[7]": {"target": "mouse plasma (plasma proteins)", "experiment": "plasma binding: 2 uM P1 in plasma, ultracentrifugation, LCMS"}, "[8]": {"target": "human plasma (plasma proteins)", "experiment": "plasma binding: 2 uM P1 in plasma, ultracentrifugation, LCMS; % Bound=100*(1-F/T4.5)"}}, "note": "Where a SMILES comes first, the peptide text is derived from it."}
{"molecule": "[MIEPVEHEESR] [Peptide P4]", "values": [{"measurement": "relative survival compared to control", "setting": "cortical neurons", "result": "increased the relative survival"}, {"measurement": "relative survival compared to control", "setting": "[1]", "result": "increased the relative survival"}]}
{"molecule": "O=C(O)c1ccc2c3c1cccc3c(=O)n1c3ccccc3nc21", "note": "[STO-609, reference compound]", "values": [{"measurement": "AMPK phosphorylation following STO-609-treatment", "setting": "[2]", "result": "inhibition of AMPK"}]}
{"molecule": "[MTDPVDHDEDV] [Peptide P2]", "values": [{"measurement": "activation of CREB (phosphorylation on serine 133) compared to scrambled peptide", "setting": "CREB [3]; 1 uM", "result": "markedly activated CREB"}, {"measurement": "relative survival compared to control", "setting": "cortical neurons", "result": "increased the relative survival"}, {"measurement": "relative survival compared to control", "setting": "[1]", "result": "increased the relative survival"}]}
{"molecule": "CSCC[C@H](NC(C)=O)C(=O)N[C@H](C(=O)N[C@@H](CCC(=O)O)C(=O)N1CCC[C@H]1C(=O)N[C@H](C(=O)N[C@@H](CCC(=O)O)C(=O)N[C@@H](Cc1c[nH]cn1)C(=O)N[C@@H](CCC(=O)O)C(=O)N[C@@H](CCC(=O)O)C(=O)N[C@@H](CC(=O)O)C(=O)N[C@H](C(N)=O)C(C)C)C(C)C)[C@@H](C)O", "note": "[LP1, Ac-MTEPVEHEEDV—NH2, reference compound] (Ac-MTEPVEHEEDV-NH2)", "values": [{"measurement": "activation of CREB (phosphorylation on serine 133) compared to scrambled peptide", "setting": "CREB [3]; 20 nM", "result": "activated CREB to a lesser extent"}, {"measurement": "pCREB (S133) in hippocampus", "setting": "CREB [4]", "result": "increase phosphorylated CREB"}, {"measurement": "pCREB (S133) in striatum", "setting": "CREB [4]", "result": "increase phosphorylated CREB"}]}
{"molecule": "[MIGSVEQEENA] [Peptide P6]", "values": [{"measurement": "activation of CREB (phosphorylation on serine 133) compared to scrambled peptide", "setting": "CREB [3]; 1 uM", "result": "markedly activated CREB"}, {"measurement": "relative survival compared to control", "setting": "cortical neurons", "result": "increased the relative survival"}, {"measurement": "relative survival compared to control", "setting": "[1]", "result": "increased the relative survival"}, {"measurement": "neurite branching", "setting": "hippocampal neurons; 0.1 uM", "result": "increased neurite branching similar to BDNF"}, {"measurement": "neurite branching", "setting": "hippocampal neurons; 1 uM", "result": "increased neurite branching similar to BDNF"}, {"measurement": "SV2A levels", "setting": "SV2A", "result": "increased SV2A levels"}]}
{"molecule": "YARAAARNARAEKEQEMTDPVDHDEDVQGAVQ (Linear peptide) [Peptide P9, reference compound]", "values": [{"measurement": "pCREB in hippocampus", "setting": "CREB and AMPK", "result": "not able to notably activate CREB"}, {"measurement": "pCREB in striatum", "setting": "CREB and AMPK", "result": "not able to notably activate CREB"}]}
{"molecule": "[MTAPVAHAEDV] [Peptide P3]", "values": [{"measurement": "neuropathic pain, von Frey test", "setting": "[5]", "result": "attenuated the pain in an acute manner"}, {"measurement": "neuropathic pain, von Frey test", "setting": "[6]", "result": "continuously reduced the neuropathic pain"}]}
{"molecule": "B1", "values": [{"measurement": "brain homogenate binding", "setting": "mouse brain homogenate", "result": "< 20", "unit": "%"}, {"measurement": "unbound in plasma", "setting": "[7]", "result": "> 75", "unit": "%"}, {"measurement": "plasma binding", "setting": "[8]", "result": 20, "unit": "%"}]}
{"molecule": "B2", "values": [{"measurement": "survival in drug-dose response study", "setting": "cortical neurons; BDNF as positive control", "result": "increased survival to a lesser extent than peptide P1"}]}
